Results as given in paper PMC9270327 (Communications Biology, 2022).
Where a name gives a salt, the structure may show the parent alone. Read-outs that look alike come from different tables or passages of the source.

Columns and labels:
Caco-2 cells = settings: Fig. 6e
TMPRSS2 = TMPRSS2 (Homo sapiens, UniProt O15393)
Method: Negative ctrl: no inhibitor, positive ctrl: inhibitor in assay buffer. d Inhibitory constants Ki as determined from (a–c). Shown are the means ± SD of n = 1 experiment performed in triplicates. No inh. no inhibition.
The activity of the compounds against the recombinant human enzymes was determined in enzyme inhibition assays. […] The measurements were performed on a Tecan infinite® M1000 and the fluorescence intensity was measured by exciting the AMC fluorophore at 380 nm wavelength and recording emission at 460 nm wavelength. […] Fluorescence intensities and absorption were measured every 2 min for 2 h or as endpoint after 2 h. […] To determine the IC50 values, the concentration-response data were plotted with the program GraphPad prism version 8.4.2 (San Diego, California) and a nonlinear regression fit with the equation [Inhibitor] vs. normalized response was applied. The inhibitory constant Ki was calculated from the IC50 values using the Cheng–Prusoff equation (Ki = IC50/[S]/KM) for competitive reversible inhibitors[66].
The stability of the inhibitors was measured according to a modified procedure from ref. [67]. […] At indicated timepoints, 100 µL samples were taken and mixed with 200 µL of ethanol to precipitate proteins. […] The supernatant was aspirated and analyzed using analytical HPLC. The residual inhibitory constants Ki after incubation was assessed by mixing serial dilutions of the inhibitor with recombinant TMPRSS2 as described above.

[1] = tested on: lentiviral pseudoparticles carrying SARS-CoV-2 Alpha (B.1.1.7) spike, Caco-2 cells; format: cell-based; settings: for SARS-CoV-2 spike driven entry, Mean (0 nM = 100): Fig. 5b
[2] = tested on: SARS-CoV-2 Beta (B.1.351), Caco-2 cells; format: cell-based

Chain of TMPRSS2 (O15393 whole entry): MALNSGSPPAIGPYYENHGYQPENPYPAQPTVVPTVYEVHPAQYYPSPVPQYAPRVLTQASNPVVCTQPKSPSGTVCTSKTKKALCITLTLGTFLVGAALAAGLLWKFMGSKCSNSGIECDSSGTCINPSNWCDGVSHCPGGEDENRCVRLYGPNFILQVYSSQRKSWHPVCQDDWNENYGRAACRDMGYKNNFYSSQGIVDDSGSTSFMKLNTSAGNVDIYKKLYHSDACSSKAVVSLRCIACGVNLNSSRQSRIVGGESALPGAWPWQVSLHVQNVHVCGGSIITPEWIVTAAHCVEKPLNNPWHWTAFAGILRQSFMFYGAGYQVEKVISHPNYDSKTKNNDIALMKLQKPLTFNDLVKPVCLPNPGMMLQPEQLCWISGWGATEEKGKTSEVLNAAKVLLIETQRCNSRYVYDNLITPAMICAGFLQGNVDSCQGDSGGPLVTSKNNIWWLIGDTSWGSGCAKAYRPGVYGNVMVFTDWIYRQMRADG

Question: Which results are given for `CN(C)C(=O)COC(=O)Cc1ccc(OC(=O)c2ccc(NC(=N)N)cc2)cc1` [CM, camostat mesylate, reference compound]?
Answer: Cell viability, Mean (0 nM = 100) (Caco-2 cells; compound 0.26 nM): 104.56; Cell viability, Mean (0 nM = 100) (Caco-2 cells; compound 1.28 nM): 104.124; Cell viability, Mean (0 nM = 100) (Caco-2 cells; compound 6.4 nM): 104.38; Cell viability, Mean (0 nM = 100) (Caco-2 cells; compound 32 nM): 101.009; Cell viability, Mean (0 nM = 100) (Caco-2 cells; compound 160 nM): 106.562; Cell viability, Mean (0 nM = 100) (Caco-2 cells; compound 800 nM): 101.849; Cell viability, Mean (0 nM = 100) (Caco-2 cells; compound 4000 nM): 104.127; Cell viability, Mean (0 nM = 100) (Caco-2 cells; compound 20000 nM): 103.706; Cell viability, Mean (0 nM = 100) (Caco-2 cells; compound 100000 nM): 93.2448; residual inhibitory activity against TMPRSS2 after incubation in body fluids (TMPRSS2; human serum / plasma, up to 10 days): inactive; reduction of activity against TMPRSS2 upon addition to serum (TMPRSS2; immediately after addition to human serum): around 60 fold; TMPRSS2 activity, Mean (0 nM = 100) (TMPRSS2; inhibitor 0.0167 nM, 0 min in serum): 97.0909; TMPRSS2 activity, Mean (0 nM = 100) (TMPRSS2; inhibitor 0.0167 nM, 30 min in serum): 98.7509; TMPRSS2 activity, Mean (0 nM = 100) (TMPRSS2; inhibitor 0.0167 nM, 60 min in serum): 96.1122; TMPRSS2 activity, Mean (0 nM = 100) (TMPRSS2; inhibitor 0.0167 nM, 120 min in serum): 96.1122; TMPRSS2 activity, Mean (0 nM = 100) (TMPRSS2; inhibitor 0.0167 nM, 24 h in serum): 109.9729; TMPRSS2 activity, Mean (0 nM = 100) (TMPRSS2; inhibitor 0.0167 nM, 10 d in serum): 104.3134; TMPRSS2 activity, Mean (0 nM = 100) (TMPRSS2; inhibitor 0.0167 nM, positive ctrl): 91.4692; TMPRSS2 activity, Mean (0 nM = 100) (TMPRSS2; inhibitor 0.167 nM, 0 min in serum): 95.7227; TMPRSS2 activity, Mean (0 nM = 100) (TMPRSS2; inhibitor 0.167 nM, 30 min in serum): 96.8742; TMPRSS2 activity, Mean (0 nM = 100) (TMPRSS2; inhibitor 0.167 nM, 60 min in serum): 95.2722; TMPRSS2 activity, Mean (0 nM = 100) (TMPRSS2; inhibitor 0.167 nM, 120 min in serum): 95.2722; TMPRSS2 activity, Mean (0 nM = 100) (TMPRSS2; inhibitor 0.167 nM, 24 h in serum): 109.0078; TMPRSS2 activity, Mean (0 nM = 100) (TMPRSS2; inhibitor 0.167 nM, 10 d in serum): 107.9350; TMPRSS2 activity, Mean (0 nM = 100) (TMPRSS2; inhibitor 0.167 nM, positive ctrl): 67.2760; TMPRSS2 activity, Mean (0 nM = 100) (TMPRSS2; inhibitor 1.665 nM, 0 min in serum): 91.6733; TMPRSS2 activity, Mean (0 nM = 100) (TMPRSS2; inhibitor 1.665 nM, 30 min in serum): 104.2530; TMPRSS2 activity, Mean (0 nM = 100) (TMPRSS2; inhibitor 1.665 nM, 60 min in serum): 90.9967; TMPRSS2 activity, Mean (0 nM = 100) (TMPRSS2; inhibitor 1.665 nM, 120 min in serum): 90.9967; TMPRSS2 activity, Mean (0 nM = 100) (TMPRSS2; inhibitor 1.665 nM, 24 h in serum): 110.5140; TMPRSS2 activity, Mean (0 nM = 100) (TMPRSS2; inhibitor 1.665 nM, 10 d in serum): 105.0630; TMPRSS2 activity, Mean (0 nM = 100) (TMPRSS2; inhibitor 1.665 nM, positive ctrl): 16.5425; TMPRSS2 activity, Mean (0 nM = 100) (TMPRSS2; inhibitor 16.65 nM, 0 min in serum): 58.3113; TMPRSS2 activity, Mean (0 nM = 100) (TMPRSS2; inhibitor 16.65 nM, 30 min in serum): 66.2869; TMPRSS2 activity, Mean (0 nM = 100) (TMPRSS2; inhibitor 16.65 nM, 60 min in serum): 73.7709; TMPRSS2 activity, Mean (0 nM = 100) (TMPRSS2; inhibitor 16.65 nM, 120 min in serum): 73.7709; TMPRSS2 activity, Mean (0 nM = 100) (TMPRSS2; inhibitor 16.65 nM, 24 h in serum): 114.2941; TMPRSS2 activity, Mean (0 nM = 100) (TMPRSS2; inhibitor 16.65 nM, 10 d in serum): 105.5411; TMPRSS2 activity, Mean (0 nM = 100) (TMPRSS2; inhibitor 16.65 nM, positive ctrl): 3.2273; TMPRSS2 activity, Mean (0 nM = 100) (TMPRSS2; inhibitor 166.5 nM, 0 min in serum): 7.4453; TMPRSS2 activity, Mean (0 nM = 100) (TMPRSS2; inhibitor 166.5 nM, 30 min in serum): 7.7321; TMPRSS2 activity, Mean (0 nM = 100) (TMPRSS2; inhibitor 166.5 nM, 60 min in serum): 7.7056; TMPRSS2 activity, Mean (0 nM = 100) (TMPRSS2; inhibitor 166.5 nM, 120 min in serum): 7.7056; TMPRSS2 activity, Mean (0 nM = 100) (TMPRSS2; inhibitor 166.5 nM, 24 h in serum): 43.5256; TMPRSS2 activity, Mean (0 nM = 100) (TMPRSS2; inhibitor 166.5 nM, 10 d in serum): 104.8964; TMPRSS2 activity, Mean (0 nM = 100) (TMPRSS2; inhibitor 166.5 nM, positive ctrl): 1.7660; TMPRSS2 activity, Mean (0 nM = 100) (TMPRSS2; inhibitor 1665 nM, 0 min in serum): 2.9461; TMPRSS2 activity, Mean (0 nM = 100) (TMPRSS2; inhibitor 1665 nM, 30 min in serum): 4.0032; TMPRSS2 activity, Mean (0 nM = 100) (TMPRSS2; inhibitor 1665 nM, 60 min in serum): 3.9955; TMPRSS2 activity, Mean (0 nM = 100) (TMPRSS2; inhibitor 1665 nM, 120 min in serum): 3.9955; TMPRSS2 activity, Mean (0 nM = 100) (TMPRSS2; inhibitor 1665 nM, 24 h in serum): 8.1597; TMPRSS2 activity, Mean (0 nM = 100) (TMPRSS2; inhibitor 1665 nM, 10 d in serum): 96.3530; TMPRSS2 activity, Mean (0 nM = 100) (TMPRSS2; inhibitor 1665 nM, positive ctrl): 2.6461; IC50 ([1]; Caco-2 cells, luciferase 2 days post transduction, read-out: IC50 pseudotyped lentivirus Alpha): 0.0987 µM; SARS-CoV-2 spike driven entry, Mean (0 nM = 100) ([1]; compound 3.2 nM): 71.733; SARS-CoV-2 spike driven entry, Mean (0 nM = 100) ([1]; compound 16 nM): 72.519; SARS-CoV-2 spike driven entry, Mean (0 nM = 100) ([1]; compound 80 nM): 51.5305; SARS-CoV-2 spike driven entry, Mean (0 nM = 100) ([1]; compound 400 nM): 39.483; SARS-CoV-2 spike driven entry, Mean (0 nM = 100) ([1]; compound 2000 nM): 18.526; SARS-CoV-2 spike driven entry, Mean (0 nM = 100) ([1]; compound 10000 nM): 4.853; SARS-CoV-2 spike driven entry, Mean (0 nM = 100) ([1]; compound 50000 nM): 1.159; IC50 ([2]; read-out: IC50 SARS-CoV-2 Beta): 9.31 µM; IC50 ([2]; read-out: IC50 SARS-CoV-2 Beta (text)): 9.3 µM
